In brackets after ≈: the same amount, converted by molar mass. Like-named read-outs stand apart in the source and are kept apart here.
Assays:
[1] = system: Staphylococcus aureus (MRSA); experiment: microbe, parasite or virus in culture; assay type: cell-based; settings: Staphylococcus aureus, MRSA
B. fragilis ATCC 25285 = experiment: MIC/MBC testing (Example 5); assay type: cell-based; settings: Bacteroides fragilis, ATCC25285
Streptococcus pyogenes = experiment: Broth microdilution MIC, aerobic bacteria (Example 4); assay type: cell-based
Candida parapsilosis = experiment: Broth microdilution MIC, fungi (Example 4); assay type: cell-based; settings: Lodderomyces parapsilosis
gram-negative aerobes = experiment: Broth microdilution MIC, summary (Example 4); assay type: cell-based; settings: tested alone
gram-positive aerobes = experiment: Broth microdilution MIC, text summary (Example 1); assay type: cell-based
Clostridium difficile = experiment: Broth microdilution MIC, anaerobic bacteria (Example 1); assay type: cell-based; settings: Clostridioides difficile
E. faecalis MMX 848 = experiment: MIC/MBC testing (Example 5); assay type: cell-based
S. aureus MMX 757 = experiment: MIC/MBC testing (Example 5); assay type: cell-based
Pseudomonas aeruginosa [2] = experiment: Broth microdilution MIC, aerobic bacteria (Example 4); assay type: cell-based
[3] = system: Klebsiella pneumoniae (KPC-2); assay type: cell-based; settings: Example 1 summary of findings; Klebsiella
Acinetobacter baumannii = experiment: Broth microdilution MIC, aerobic bacteria (Example 4); assay type: cell-based
[4] = system: Enterococcus faecalis (VRE); experiment: microbe, parasite or virus in culture; assay type: cell-based
Lactobacillus jensenii [5] = experiment: Broth microdilution MIC, anaerobic bacteria (Example 1); assay type: cell-based; settings: Lactobacillus jensenii
Bifidobacterium longum = experiment: Broth microdilution MIC, anaerobic bacteria (Example 4); assay type: cell-based; settings: isolate MMX 3968
Lactobacillus jensenii [6] = experiment: as above; assay type: cell-based; settings: isolate MMX 4149
strains tested = experiment: MIC/MBC testing, summary (Example 5); assay type: cell-based
S. pyogenes MMX 404 = experiment: MIC/MBC testing (Example 5); assay type: cell-based
E. coli ATCC 25922 = experiment: MIC/MBC testing (Example 5); assay type: cell-based; settings: Escherichia coli, ATCC25922
Aspergillus fumigatus [7] = experiment: Broth microdilution MIC, yeast and fungi (Example 1); assay type: cell-based; settings: Aspergillus fumigatus, isolate MMX 5280 (ATCC MYA-3626)
[8] = Compound precipitation in uninoculated solubility controls (Example 1); assay type: physicochemical; parameters: key to precipitation observed (type): NA: not applicable (no precipitation observed); TRP: trace precipitate; DCP: distinct precipitate
Procedure: Plates were stacked 3-4 high, covered with a lid on the top plate, placed in plastic bags, and incubated at 35° C. for approximately 16 to 20 hr (aerobes), 20 to 24 hr (Streptococcus), and 24 and 48 hr (fungi). Anaerobe plates were stacked, covered with a lid on the top plate, placed in a BD GasPak EZ Anaerobe Container System and incubated at 35° C. for 48 hr. Following incubation, the microplates were removed from the incubator and viewed from the bottom using a plate viewer. […] The MIC was read and recorded as the lowest concentration of drug that inhibited visible growth of the organism.

Lactobacillus crispatus = experiment: Broth microdilution MIC, anaerobic bacteria (Example 1); assay type: cell-based; settings: Lactobacillus crispatus
Aspergillus fumigatus [9] = experiment: Broth microdilution MIC, fungi (Example 4); assay type: cell-based; settings: Aspergillus fumigatus
Streptococcus pneumoniae = experiment: Broth microdilution MIC, aerobic bacteria (Example 1); assay type: cell-based; settings: Streptococcus pneumoniae
Pseudomonas aeruginosa [10] = experiment: as above; assay type: cell-based
S. aureus ATCC 29213 = experiment: MIC/MBC testing (Example 5); assay type: cell-based
[11] = Compound precipitation in uninoculated solubility controls (Example 4); assay type: physicochemical
Procedure: Un-inoculated solubility control plates for each test media and drug were incubated in parallel with test plates and observed for evidence of drug precipitation. MICs were read where visible growth of the organism was inhibited.

[12] = read-out: inhibits the growth (IC50)
[13] = ratios of 1-4 are indicative of bactericidal activity
[14] = Example 1 summary of findings, read-out: inhibits the growth (IC50 values)
[15] = Staphylococcus aureus, ATCC29213

## C=C(C)[C@@H]1CCC(C)=C[C@H]1c1c(O)cc(CCCCC)cc1O [CBD, cannabidiol]
[1]
  MIC: 2 µg/mL (≈ 6.36 µM)
[1]; [12]
  IC50: 2 µg/mL (≈ 6.36 µM)
B. fragilis ATCC 25285
  MIC: 16 µg/mL (≈ 50.9 µM)
Streptococcus pyogenes
  MIC: 32 µg/mL (≈ 102 µM)
Candida parapsilosis; ATCC22019, 24 h, read-out: MIC at 24 hr
  MIC: > 128 µg/mL
Candida parapsilosis; ATCC22019, Example 4, 48 hr, isolate MMX 2323 (ATCC 22019), read-out: MIC at 48 hr
  MIC: > 128 µg/mL
gram-negative aerobes
  activity against Gram-negative aerobes: inactive
gram-positive aerobes
  activity against gram-positive aerobic bacteria: active
Clostridium difficile; ATCC00057, Example 1, isolate MMX 4381 (ATCC 00057)
  MIC: 32 µg/mL (≈ 102 µM)
Clostridium difficile; Example 1, isolate MMX 8330, read-out: MIC
  MIC: 32 µg/mL (≈ 102 µM)
Clostridium difficile; Example 1, isolate MMX 8333, read-out: MIC
  MIC: 32 µg/mL (≈ 102 µM)
Clostridium difficile; [12]
  IC50: 32 µg/mL (≈ 102 µM)
E. faecalis MMX 848; Enterococcus faecalis, MMX848
  MBC: 2 µg/mL (≈ 6.36 µM)
  MIC: 1 µg/mL (≈ 3.18 µM)
E. faecalis MMX 848; [13]
  MBC:MIC: 2
S. aureus MMX 757; Staphylococcus aureus, MMX757
  MBC: 1 µg/mL (≈ 3.18 µM)
  MIC: 1 µg/mL (≈ 3.18 µM)
S. aureus MMX 757; [13]
  MBC:MIC: 1
Pseudomonas aeruginosa [2]
  MIC: > 128 µg/mL
[3]
  effect on the gram-negative pathogen: did not have any effect
Acinetobacter baumannii
  MIC: > 128 µg/mL
[4]
  MIC: 2 µg/mL (≈ 6.36 µM)
Lactobacillus jensenii [5]; Example 1, isolate MMX 4149, read-out: MIC
  MIC: 64 µg/mL (≈ 204 µM)
Lactobacillus jensenii [5]; [14]
  IC50: 64 µg/mL (≈ 204 µM)
Bifidobacterium longum
  MIC: 64 µg/mL (≈ 204 µM)
Lactobacillus jensenii [6]
  MIC: > 128 µg/mL
Strains tested
  biocidal activity against the strains tested: overall biocidal
S. pyogenes MMX 404; Streptococcus pyogenes, MMX404
  MBC: 32 µg/mL (≈ 102 µM)
  MIC: 32 µg/mL (≈ 102 µM)
S. pyogenes MMX 404; [13]
  MBC:MIC: 1
E. coli ATCC 25922
  MIC: > 256 µg/mL
Aspergillus fumigatus [7]; 24 hr, read-out: MIC at 24 hr
  MIC: > 256 µg/mL
Aspergillus fumigatus [7]; 48 hr, read-out: MIC at 48 hr
  MIC: > 256 µg/mL
[8]; MHB II
  lowest concentration at which precipitation was observed: 16 µg/mL
  precipitation observed (type): TRP
[8]; MHB II with Blood
  lowest concentration at which precipitation was observed: 128 µg/mL
  precipitation observed (type): TRP
Lactobacillus crispatus; Example 1, isolate MMX 4147, read-out: MIC
  MIC: 2 µg/mL (≈ 6.36 µM)
Lactobacillus crispatus; [14]
  IC50: 2 µg/mL (≈ 6.36 µM)
Aspergillus fumigatus [9]; 48 h, read-out: MIC at 48 hr
  MIC: > 128 µg/mL
Aspergillus fumigatus [9]; Example 4, 24 hr, isolate MMX 5280 (MYA-3626), read-out: MIC at 24 hr
  MIC: > 128 µg/mL
Streptococcus pneumoniae; ATCC49619, Example 1, isolate MMX 1195 (ATCC 49619), read-out: MIC
  MIC: 4 µg/mL (≈ 12.7 µM)
Streptococcus pneumoniae; Example 1 summary of findings, read-out: inhibits the growth (IC50)
  IC50: 4 µg/mL (≈ 12.7 µM)
Pseudomonas aeruginosa [10]; Example 1 summary of findings, Pseudomonas
  effect on the gram-negative pathogen: did not have any effect
Pseudomonas aeruginosa [10]; Pseudomonas aeruginosa, Example 1, isolate MMX 1380, read-out: MIC
  MIC: > 256 µg/mL
S. aureus ATCC 29213; [15]
  MBC: 2 µg/mL (≈ 6.36 µM)
  MIC: 1 µg/mL (≈ 3.18 µM)
S. aureus ATCC 29213; [13]
  MBC:MIC: 2
[11]; Brucella Broth
  precipitation observed (type): none
[11]; MHB II
  precipitation observed (type): none
[11]; MHB II with Blood
  precipitation observed (type): none
[11]; RPMI
  precipitation observed (type): none

Reference: patent US11207291B2, “Antimicrobial compositions comprising cannabinoids and methods of using the same” (Graphium Biosciences, Inc., priority 2017, dated 2021)
